Experimental data taken from patent US11753408B2, “Compounds and method for blocking transmission of malarial parasite” (The United States of America, as represented by the …, priority 2016, dated 2023).
Read-outs that look alike come from different tables or passages of the source.

Key:
PAMPA permeability = assay type: in vitro ADME
mTOR = mTOR (Homo sapiens, UniProt P42345); test: mTOR activity (no method described); assay type: biochemical
[1] = test system: Stage III-V gametocytes (blood stage P. falciparum parasites); test: In vitro drug activity on gametocytes (AlamarBlue viability assay); assay type: cell-based, Plasmodium falciparum; settings: read-out: Gametocyte EC50
In short: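 P. falciparum 3D7 stage III–V gametocytes (also HB3, Dd2), enriched by 50 mM N-acetylglucosamine and Percoll gradient, seeded at 20,000/well with compound for 72 h at 37° C, 5% CO2. AlamarBlue then added for 24 h; viability read as fluorescence (Ex 525, Em 598 nm).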

Solubility at pH 7.4 = assay type: physicochemical
[2] = Microsomal stability (rat); assay type: in vitro ADME; settings: rat microsomes
[3] = test system: Asexual parasites of P. falciparum strain 3D7; test: In vitro drug activity on asexual parasites (SYBR Green assay); assay type: cell-based, Plasmodium falciparum
In short: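 3D7 parasites at 0.5% parasitemia and 2% hematocrit were exposed to drugs (DMSO ≤0.5%) for 72 h under standard culture conditions, in duplicate. After freeze-thaw lysis, SYBR Green I lysis buffer was added for 30 min at room temperature, and fluorescence was read at 490/520 nm.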

[4] = P. falciparum 3D7 asexual parasites, 72 h, SYBR Green
[5] = P. falciparum stage III-V gametocytes, 72 h incubation, AlamarBlue

Structure (SMILES)	PAMPA Permeability (PAMPA permeability) [×10⁻⁶ cm/s]	mTOR (mTOR) [nM]	Sol @ pH 7.4 (Solubility at pH 7.4) [ug/mL]	Microsomal Stability (rat) T1/2 [2] [min]	EC50 [3] [µM]	EC50 [3, 4] [µM]	PAMPA Permeability (×10^6 cm/s) (PAMPA permeability)	Sol @ pH 7.4 (ug/mL) (Solubility at pH 7.4)	EC50 [1] [µM]	EC50 [1, 5] [µM]
CC(C)(N)c1cccc(-c2ccc3ncc4ccc(=O)n(-c5ccc(C(=O)N6CCOCC6)cc5)c4c3c2)c1 [Compound 197]	3.5	2384	>77	>30	–	–	–	–	65.1	–
CC1CC1NC(=O)c1ccc(-n2c(=O)ccc3cnc4ccc(-c5ccc(N)nc5)cc4c32)cc1 (stereo not drawn) [Compound 338]	141	150.5	0.32	–	–	–	–	–	0.0659	–
Nc1ccc(-c2ccc3ncc4ccc(=O)n(-c5ccc6c(c5)NC(=O)C6)c4c3c2)cn1 [Compound 394]	–	–	–	>30	–	0.13	<1 ×10^6 cm/s	<1	–	0.439
CS(=O)(=O)c1ccc(-n2c(=O)ccc3cnc4ccc(-c5ccc(Cl)cc5)cc4c32)cc1 [Compound 25]	–	–	–	>30.0	–	0.0147	<1.5 ×10^6 cm/s	<1.0	–	0.117
Nc1ccc(-c2ccc3ncc4ccc(=O)n(-c5cccc(S(N)(=O)=O)c5)c4c3c2)cn1 [Compound 77]	–	–	–	>30.0	–	0.0817	<1.0 ×10^6 cm/s	33.6	–	0.295
CCN(CC)Cc1ccc(-c2ccc3ncc4ccc(=O)n(-c5cc(C#N)ccc5C)c4c3c2)cc1 [Compound 9]	–	–	–	10.9	–	0.668	1492.3 ×10^6 cm/s	58.6	–	2.57
Nc1ccc(-c2ccc3ncc4ccc(=O)n(-c5ccc6c(c5)CN(C5CC5)C6=O)c4c3c2)cn1 [Compound 390]	–	–	–	>30.0	–	0.0752	25 ×10^6 cm/s	4.2	–	0.116
CN(C)Cc1ccc(-c2ccc3ncc4ccc(=O)n(-c5ccc6c(c5)CNC6=O)c4c3c2)cc1 [Compound 340]	–	–	–	>30.0	–	0.266	5.2 ×10^6 cm/s	>68.0	–	0.617
CN1Cc2cc(-n3c(=O)ccc4cnc5ccc(-c6ccc(F)cc6)cc5c43)ccc2C1=O [Compound 360]	–	–	–	19.2	–	0.17	635.05 ×10^6 cm/s	0.73	–	0.736
CS(=O)(=O)c1ccc(-n2c(=O)ccc3cnc4ccc(-c5ccc(CN)cc5)cc4c32)cc1 [Compound 47]	–	–	–	>30.0	–	0.0664	<2.9 ×10^6 cm/s	2.1	–	0.377
CN(C)Cc1cccc(-c2ccc3ncc4ccc(=O)n(-c5ccc(C(=O)N6CCOCC6)cc5)c4c3c2)c1 [Compound 173]	366	100000	>77.00	–	–	–	–	–	2.53	–
CN(C)S(=O)(=O)c1ccc(-n2c(=O)ccc3cnc4ccc(-c5ccc(Cl)cc5)cc4c32)cc1 [Compound 42]	–	–	–	4.9	–	0.0374	97.4 ×10^6 cm/s	<1.0	–	0.119
CS(=O)(=O)c1ccc(-n2c(=O)ccc3cnc4ccc(-c5ccc(Cl)c(C#N)c5)cc4c32)cc1 [Compound 32]	–	–	–	>30.0	–	0.0855	39.6 ×10^6 cm/s	<1.0	–	0.0928
O=C(c1ccc(-n2c(=O)ccc3cnc4ccc(-c5cccc(Cl)c5)cc4c32)cc1)N1CCOCC1 [Compound 122]	822	1303	–	5.4	0.261	–	–	–	0.371	–
CS(=O)(=O)c1ccc(-n2c(=O)ccc3cnc4ccc(-c5ccc(Cl)c(N)c5)cc4c32)cc1 [Compound 28]	–	–	–	>30.0	–	0.0162	33.9 ×10^6 cm/s	<1.0	–	0.0953
CN1C(=O)CCc2cc(-n3c(=O)ccc4cnc5ccc(-c6ccc(N)nc6)cc5c43)ccc21 [Compound 392]	–	–	–	>30.00	–	0.022	133.39 ×10^6 cm/s	33.81	–	0.0461
O=C1NCc2cc(-n3c(=O)ccc4cnc5ccc(-c6ccc(CN7CCOCC7)cc6)cc5c43)ccc21 [Compound 369]	–	–	–	26	–	1.23	55 ×10^6 cm/s	15.7	–	2.94

The next lines start with results.

PAMPA Permeability (PAMPA permeability) [×10⁻⁶ cm/s]	mTOR (mTOR) [nM]	Sol @ pH 7.4 (Solubility at pH 7.4) [ug/mL]	Microsomal Stability (rat) T1/2 [2] [min]	EC50 [3] [µM]	EC50 [3, 4] [µM]	PAMPA Permeability (×10^6 cm/s) (PAMPA permeability)	Sol @ pH 7.4 (ug/mL) (Solubility at pH 7.4)	Structure (SMILES)	EC50 [1] [µM]	EC50 [1, 5] [µM]
606	4337	2.4	26.7	–	–	–	–	COc1cc(C(=O)NC2CC2)ccc1-n1c(=O)ccc2cnc3ccc(-c4ccc(Cl)cc4)cc3c21 [Compound 191]	0.172	–
204	631.5	2.8	–	0.301	–	–	–	O=Cc1ccc(-c2ccc3ncc4ccc(=O)n(-c5ccc(C(=O)N6CCOCC6)cc5)c4c3c2)cc1 [Compound 169]	0.63	–
243	522.6	–	5.4	0.221	–	–	–	Cc1cccc(-c2ccc3ncc4ccc(=O)n(-c5ccc(C(=O)N6CCOCC6)cc5)c4c3c2)c1 [Compound 121]	0.443	–
–	–	–	3.5	–	0.0225	58.15 ×10^6 cm/s	1.48	N#Cc1cc(-n2c(=O)ccc3cnc4ccc(-c5ccc(N)nc5)cc4c32)ccc1N1CCOCC1 [Compound 23]	–	0.0404
–	–	–	3	–	0.932	164.4 ×10^6 cm/s	2.7	CN(C)C(=O)c1cc(-c2ccc3ncc4ccc(=O)n(-c5ccc(S(C)(=O)=O)cc5)c4c3c2)ccc1Cl [Compound 50]	–	1.83
–	–	–	>30	–	4.18	<1.6 ×10^6 cm/s	52.5	CN(C)Cc1ccc(-c2ccc3ncc4ccc(=O)n(-c5ccc6c(c5)NC(=O)C6)c4c3c2)cc1 [Compound 374]	–	12.9
–	–	–	12.8	–	0.00907	<1.00 ×10^6 cm/s	<0.10	C[S+]([O-])c1ccc(-n2c(=O)ccc3cnc4ccc(-c5ccc(Cl)cc5)cc4c32)cc1 (stereo not drawn) [Compound 59]	–	0.0254
–	–	–	7.4	–	0.00886	98.56 ×10^6 cm/s	0.6	O=C1NCc2cc(-n3c(=O)ccc4cnc5ccc(-c6ccc(F)cc6)cc5c43)ccc21 [Compound 362]	–	0.0817
–	–	–	4.6	–	0.0312	34.8 ×10^6 cm/s	<1.0	CN(C)C=NS(=O)(=O)c1ccc(-n2c(=O)ccc3cnc4ccc(-c5ccc(Cl)cc5)cc4c32)cc1 [Compound 44]	–	0.135
< 1	319	<1	–	–	–	–	–	Cn1c(=O)n(-c2ccc(N3CCN(CCO)CC3)c(C#N)c2)c2c3cc(-c4ccc(Cl)cc4)ccc3ncc21 [Compound 417]	0.0365	–
–	–	–	>30	–	0.35	<6.3 ×10^6 cm/s	3.3	NC1(c2ccc(-c3ccc4ncc5ccc(=O)n(-c6ccc7c(c6)CNC7=O)c5c4c3)cc2)CC1 [Compound 373]	–	0.0457
–	–	–	>30.00	–	1.57	199.84 ×10^6 cm/s	<0.10	CCN1Cc2cc(-n3c(=O)ccc4cnc5ccc(-c6ccc(F)cc6)cc5c43)ccc2C1=O [Compound 361]	–	6.44
117	1841	0.51	–	0.0567	–	–	–	Cc1cc(C(=O)NC2CC2)ccc1-n1c(=O)ccc2cnc3ccc(-c4ccc(Cl)cc4)cc3c21 [Compound 88]	0.141	–
–	–	–	12.1	–	0.111	621.2 ×10^6 cm/s	<0.1	Cc1ccc(C#N)cc1-n1c(=O)ccc2cnc3ccc(-c4ccc(Cl)cc4)cc3c21 [Compound 3]	–	0.264
20.4	1357	–	19.7	0.144	–	–	–	N#Cc1cccc(-c2ccc3ncc4ccc(=O)n(-c5ccc(C(=O)N6CCOCC6)cc5)c4c3c2)c1 [Compound 124]	0.349	–
–	–	–	>30	–	0.472	1.2 ×10^6 cm/s	45.3	O=C1NCc2cc(-n3c(=O)ccc4cnc5ccc(-c6ccc(CN7CCCC7)cc6)cc5c43)ccc21 [Compound 371]	–	2.47
